Data published in patent US12201624B2, “Compositions comprising mixtures of compounds and uses thereof” (Prostasis, LLC, priority 2021, dated 2025).

Assay: Plasma and brain levels of the components by LC-MS/MS after 10 days of HFD containing the exemplary composition
Text: In all studies described below, animals on the test diet received either a high fat diet (HFD) or a low-fat diet (LFD) ad libitum, with the diet further containing the components listed in Table 5.
Adult female wild-type C57/BL6 (Envigo) were used for the experiments. The animals were group housed in plastic cages (3-5 animals/cage) and had access to food and water ad libitum. Experiments were approved by the Institutional Animal Care and Use Committee of Brains On-Line LLC, South San Francisco, CA.
Mice were fed a HFD containing a composition comprising nicotinic acid, berberine, silibinin, lipoic acid and taurine (see Table 5) for 10 days. Subjects were euthanized, and plasma and brain samples were collected after 10 days feeding with a HFD containing the composition. The blood was collected into a vial already containing EDTA anticoagulant. The blood was centrifuged at 2500×g at 4° C. for 10 minutes. Supernatants were stored as plasma samples at −80° C. Immediately following blood collection, whole brains were rapidly extracted, placed into a pre-weighed tube, and weighed. Samples were snap frozen with liquid nitrogen.
Levels of nicotinic acid, berberine, silibinin (active form of Siliphos®), lipoic acid and taurine were quantified in plasma and brain samples by LC-MS/MS.

[1] = female, C57/BL6, mouse, in vivo
[2] = female, C57/BL6, mouse, in vivo, 10 days

SMILES	Cumulative Brain (brain after 10 days administration in HFD, mice) [pmol/g]	concentration at 10 days [1] [nM]	Basal Plasma (basal plasma level, mice, LC-MS/MS)	Cumulative Brain [2] [pmol/g]	Basal Brain (mouse, in vivo)	Basal Brain [1] [nmol/g]	Basal Plasma (mouse, in vivo)	Cumulative Plasma [2] [nM]
COc1ccc2cc3[n+](cc2c1OC)CCc1cc2c(cc1-3)OCO2 [Berberine]	265	20.5						
O=C(O)CCCCC1CCSS1 (stereo not drawn) [Lipoic acid]		68.2	<LLOQ	21	<LLOQ			
O=C(O)c1cccnc1 [Nicotinic acid]		1360		12600		9.4	<LLOQ	
COc1cc(C2Oc3cc([C@H]4Oc5cc(O)cc(O)c5C(=O)[C@@H]4O)ccc3OC2CO)ccc1O (stereo partly drawn) [Silibinin]				12.9				21
